Assay results published in patent US10774053B2, “HIV protease inhibitors” (Gilead Sciences, Inc., priority 2017, dated 2020).
pEC50: −log10 of the molar value.

tested on: HIV-1 (IIIB) in MT-4 cells; assay: microbe, parasite or virus in culture; format: cell-based; conditions: Human immunodeficiency virus 1, IIIB, MT4, MT-4 cells, HIV-1; read-out: MT4 EC50

| SMILES | pEC50 |
| --- | --- |
| CC(C)(C)C[C@]1(c2ccc(-c3cccc(=O)[nH]3)cc2)NC(=N)N([C@H](COC(=O)NC2(C(F)(F)F)CC2)c2ccc(Cl)c(-n3cncn3)c2)C1=O [Compound 249] | 6.49 |
| CC(C)C[C@]1(c2ccc(-c3cnn(C(F)F)c3)cc2)NC(=N)N([C@H](COC(=O)NC2(C(F)(F)F)CC2)c2ccc(Cl)c(-n3cncn3)c2)C1=O [Compound 250] | 7.53 |
| CC(C)(C)C[C@]1(c2ccc(-c3cnn(C(F)F)c3)cc2)NC(=N)N([C@H](COC(=O)NC2(C)CC2)c2ccc(OC(F)(F)F)c(-n3cncn3)c2)C1=O [Compound 251] | 7.07 |
| CC(C)(C)C[C@]1(c2ccc(-c3cnn(C(F)F)c3)cc2)NC(=N)N([C@H](COC(=O)NC2(C)CC2)c2ccc(Cl)c(-n3ncnc3C3CC3)c2)C1=O [Compound 252] | 7.68 |
| CC(C)(C)C[C@]1(c2ccc(-c3cnn(C(F)F)c3)cc2)NC(=N)N([C@H](COC(=O)NC2(C(F)(F)F)CC2)c2ccc(Cl)c(-n3ncnc3C3CC3)c2)C1=O [Compound 253] | 7.55 |
| Cc1ncnn1-c1cc([C@@H](COC(=O)NC2(C(F)F)CC2)N2C(=N)N[C@](CC(C)(C)C)(c3ccc(-c4cnn(C(F)F)c4)cc3)C2=O)ccc1Cl [Compound 254] | 7.74 |
| CC(C)(C)C[C@]1(c2ccc(-c3cnn(C(F)F)c3)cc2)NC(=N)N([C@H](COC(=O)NC2(C(F)(F)F)CC2)c2ccc(Cl)c(-n3cccn3)c2)C1=O [Compound 255] | 7.64 |
| CC(C)(C)C[C@]1(c2cc(F)cc(F)c2)NC(=N)N([C@H](COC(=O)NC2(C)CC2)c2ccc(Cl)c(-n3cc(-c4ccccn4)cn3)c2)C1=O [Compound 256] | 6.26 |
| CC(C)(C)C[C@]1(c2cc(F)cc(F)c2)NC(=N)N([C@H](COC(=O)NC2(C)CC2)c2ccc(Cl)c(-n3cccn3)c2)C1=O [Compound 257] | 5.38 |
| CC(C)(C)C[C@]1(c2ccc(-c3cnn(C(F)F)c3)cc2)NC(=N)N([C@H](COC(=O)NC2(C)CC2)c2ccc(Cl)c(-n3cccn3)c2)C1=O [Compound 258] | 7.55 |
| CCC1(NC(=O)OC[C@H](c2ccc(Cl)c(-n3cccn3)c2)N2C(=N)N[C@](CC(C)(C)C)(c3ccc(-c4cnn(C(F)F)c4)cc3)C2=O)CC1 [Compound 259] | 7.18 |
| CC(C)(C)C[C@]1(c2ccc(-c3cnn(C(F)F)c3)cc2)NC(=N)N([C@H](COC(=O)NC2(C)CC2)c2ccc(Cl)c(-n3ccnn3)c2)C1=O [Compound 260] | 7.49 |
| CC(C)(C)C[C@]1(c2ccc(-c3cnn(C(F)F)c3)cc2)NC(=N)N([C@H](COC(=O)N2CC(F)(F)C2)c2ccc(Cl)c(-n3cccn3)c2)C1=O [Compound 261] | 7.54 |
| CC1(NC(=O)OC[C@H](c2ccc(Cl)c(-n3cccn3)c2)N2C(=N)N[C@](CC(C)(C)C(F)(F)F)(c3cc(F)cc(F)c3)C2=O)CC1 [Compound 262] | 5.74 |
| CC1(NC(=O)OC[C@H](c2ccc(Cl)c(-n3cccn3)c2)N2C(=N)N[C@](CC(C)(C)C(F)(F)F)(c3ccc(Cl)cc3)C2=O)CC1 [Compound 263] | 6.13 |
| CC(C)(C)C[C@]1(c2ccc(-c3cnn(C(F)F)c3)cc2)NC(=N)N([C@H](COC(=O)NC2(C)CC2)c2ccc(Cl)c(-n3cc(C4CC4)cn3)c2)C1=O [Compound 264] | 6.64 |
| CC(C)(C)C[C@]1(c2ccc(-c3cnn(C(F)F)c3)cc2)NC(=N)N([C@H](COC(=O)NC2(C)CC2)c2ccc(Cl)c(-n3cc(C#N)cn3)c2)C1=O [Compound 265] | 7.75 |
| CC(C)(C)C[C@]1(c2ccc(-c3cnn(C(F)F)c3)cc2)NC(=N)N([C@H](COC(=O)NC2(C)CC2)c2ccc(Cl)c(-n3cnnn3)c2)C1=O [Compound 266] | 7.24 |
| N=C1N[C@](C#CC2CC2)(c2ccc(-c3cnn(C(F)F)c3)cc2)C(=O)N1[C@H](COC(=O)NC1(C(F)(F)F)CC1)c1ccc(Cl)c(-n2cccn2)c1 [Compound 267] | 6.61 |
| CC(C)(C)C[C@]1(c2ccc(-c3cnn(C(F)F)c3)cc2)NC(=N)N([C@H](COC(=O)NC2(C(F)(F)F)CC2)c2ccc(Cl)c(-n3nccn3)c2)C1=O [Compound 268] | 7.42 |
| CC(C)(C)C[C@]1(c2ccc(-c3cnn(C(F)F)c3)cc2)NC(=N)N([C@H](COC(=O)NC2(C)CC2)c2cc(-n3cncn3)c(Cl)cn2)C1=O [Compound 269] | 7.21 |
| CC(C)(C)C[C@]1(c2ccc(-c3ccc(F)cn3)cc2)NC(=N)N([C@H](COC(=O)NC2(C(F)(F)F)CC2)c2ccc(Cl)c(-n3ncnc3C(F)F)c2)C1=O [Compound 274] | 7.95 |
| CC(C)(C)C[C@]1(c2ccc(-c3ncc(F)cn3)cc2)NC(=N)N([C@H](COC(=O)NC2(C(F)(F)F)CC2)c2ccc(Cl)c(-n3ncnc3C(F)F)c2)C1=O [Compound 275] | 7.89 |
| CC(C)(C)C[C@]1(c2ccc(-c3ccsn3)cc2)NC(=N)N([C@H](COC(=O)NC2(C(F)(F)F)CC2)c2ccc(Cl)c(-n3ncnc3C(F)F)c2)C1=O [Compound 276] | 7.90 |
| CC(C)(C)C[C@]1(c2ccc(-c3cncs3)cc2)NC(=N)N([C@H](COC(=O)NC2(C(F)(F)F)CC2)c2ccc(Cl)c(-n3ncnc3C(F)F)c2)C1=O [Compound 277] | 8.16 |

| SMILES | pEC50 |
| --- | --- |
| CC(C)(C)C[C@]1(c2ccc(-c3ccc(C(F)F)nc3)cc2F)NC(=N)N([C@H](COC(=O)NC2(C(F)(F)F)CC2)c2ccc(Cl)c(-n3ncnc3C(F)F)c2)C1=O [Compound 279] | 7.63 |
| CC(C)(C)C[C@]1(c2ccc(C#N)cc2)NC(=N)N([C@H](COC(=O)NC2(C(F)(F)F)CC2)c2ccc(Cl)c(-n3ncnc3C(F)F)c2)C1=O [Compound 280] | 7.68 |
| CC(C)(C)C[C@]1(c2ccc(-c3ccc(C#N)cc3)cc2)NC(=N)N([C@H](COC(=O)NC2(C(F)(F)F)CC2)c2ccc(Cl)c(-n3ncnc3C(F)F)c2)C1=O [Compound 281] | 7.65 |
| CC(C)(C)C[C@]1(c2ccc(-c3ccc(OC(F)F)cc3)cc2)NC(=N)N([C@H](COC(=O)NC2(C(F)(F)F)CC2)c2ccc(Cl)c(-n3ncnc3C(F)F)c2)C1=O [Compound 282] | 7.21 |
| CC(C)(C)C[C@]1(c2ccc(-c3ccc4c(c3)OC(F)(F)O4)cc2)NC(=N)N([C@H](COC(=O)NC2(C(F)(F)F)CC2)c2ccc(Cl)c(-n3ncnc3C(F)F)c2)C1=O [Compound 283] | 6.95 |
| CC(C)(C)C[C@]1(c2ccc(-c3ncns3)cc2F)NC(=N)N([C@H](COC(=O)NC2(C(F)(F)F)CC2)c2ccc(Cl)c(-n3ncnc3C(F)F)c2)C1=O [Compound 284] | 7.94 |
| CC(C)(C)C[C@]1(c2ccc(-c3ccn(C(F)F)n3)cc2F)NC(=N)N([C@H](COC(=O)NC2(C(F)(F)F)CC2)c2ccc(Cl)c(-n3ncnc3C(F)F)c2)C1=O [Compound 285] | 7.78 |
| CC(C)(C)C[C@]1(c2ccc(-c3cnn(C(F)F)c3)cc2)NC(=N)N([C@H](COC(=O)N[C@@H]2C[C@@H]2F)c2ccc(Cl)c(-n3ncnc3C(F)F)c2)C1=O [Compound 287] | 8.12 |
| CC(C)(C)C[C@]1(c2ccc(-c3cnn(C(F)F)c3)cc2)NC(=N)N([C@H](COC(=O)N[C@H]2C[C@H]2F)c2ccc(Cl)c(-n3ncnc3C(F)F)c2)C1=O [Compound 288] | 8.22 |
| CC(C)(C)C[C@]1(c2ccc(-c3cnn(S(C)(=O)=O)c3)cc2)NC(=N)N([C@H](COC(=O)NC2(C(F)(F)F)CC2)c2ccc(Cl)c(-n3ncnc3C(F)F)c2)C1=O [Compound 292] | 7.85 |
| CC(C)(C)C[C@]1(c2ccc(-c3cnn(S(C)(=O)=O)c3)c(F)c2)NC(=N)N([C@H](COC(=O)NC2CC2(F)F)c2ccc(Cl)c(-n3ncnc3C(F)F)c2)C1=O (stereo partly shown) [Compound 293] | 7.98 |
| CC(C)(C)C[C@]1(c2ccc(-c3cnn(C4CC4)c3)cc2)NC(=N)N([C@H](COC(=O)N[C@H]2CC2(F)F)c2ccc(Cl)c(-n3ncnc3C(F)F)c2)C1=O [Compound 294] | 8.06 |
| Cn1ccc(-c2ccc([C@@]3(CC(C)(C)C)NC(=N)N([C@H](COC(=O)N[C@H]4CC4(F)F)c4ccc(Cl)c(-n5ncnc5C(F)F)c4)C3=O)cc2)n1 [Compound 296] | 8.07 |
| Cn1ccc(-c2ccc([C@@]3(CC(C)(C)C)NC(=N)N([C@H](COC(=O)NCC(F)(F)F)c4ccc(Cl)c(-n5ncnc5C(F)F)c4)C3=O)cc2)n1 [Compound 297] | 7.99 |
| CC(C)(C)C[C@]1(c2ccc(-c3cnn(C4CC4)c3)c(F)c2)NC(=N)N([C@H](COC(=O)NC2CC2(F)F)c2ccc(Cl)c(-n3ncnc3C(F)F)c2)C1=O (stereo partly shown) [Compound 298] | 8.11 |
| CC(C)(C)C[C@]1(c2ccc(-c3cnn(C(F)F)c3)c(F)c2)NC(=N)N([C@H](COC(=O)NCC(C)(F)F)c2ccc(Cl)c(-n3ncnc3C(F)F)c2)C1=O [Compound 299] | 7.89 |
| CC(C)(C)C[C@]1(c2ccc(-c3cnn(S(C)(=O)=O)c3)c(F)c2)NC(=N)N([C@H](COC(=O)NCC(F)(F)F)c2ccc(Cl)c(-n3ncnc3C(F)F)c2)C1=O [Compound 300] | 7.90 |
| CC(C)(C)C[C@]1(c2ccc(-c3cnn(S(=O)(=O)C4CC4)c3)c(F)c2)NC(=N)N([C@H](COC(=O)NCC(F)(F)F)c2ccc(Cl)c(-n3ncnc3C(F)F)c2)C1=O [Compound 302] | 7.74 |
| CC(C)(C)C[C@]1(c2ccc(-c3cnn(C4CC4)c3)c(F)c2)NC(=N)N([C@H](COC(=O)NC2(C(F)(F)F)CC2)c2ccc(Cl)c(-n3ncnc3C(F)F)c2)C1=O [Compound 306] | 7.96 |
| CC(C)(C)C[C@]1(c2ccc(-c3cnn(C4CC4)c3)c(F)c2)NC(=N)N([C@H](COC(=O)NCC(F)(F)F)c2ccc(Cl)c(-n3ncnc3C(F)F)c2)C1=O [Compound 307] | 7.90 |
| CC(C)(C)C[C@]1(c2ccc(-n3nccn3)c(F)c2)NC(=N)N([C@H](COC(=O)NC2(C(F)(F)F)CC2)c2ccc(Cl)c(-n3ncnc3C(F)F)c2)C1=O [Compound 309] | 7.87 |
| C[C@@H](NC(=O)OC[C@H](c1ccc(Cl)c(-n2ncnc2C(F)F)c1)N1C(=N)N[C@](CC(C)(C)C)(c2ccc(-c3cnn(C(F)F)c3)cc2)C1=O)C(F)(F)F [Compound 310] | 7.69 |
| CC(C)(C)C[C@]1(c2ccc(-c3ccc(S(C)(=O)=O)cc3)c(F)c2)NC(=N)N([C@H](COC(=O)NC2(C(F)(F)F)CC2)c2ccc(Cl)c(-n3ncnc3C(F)F)c2)C1=O [Compound 313] | 7.71 |
| C[C@H](NC(=O)OC[C@H](c1ccc(Cl)c(-n2ncnc2C(F)F)c1)N1C(=N)N[C@](CC(C)(C)C)(c2ccc(-c3cnn(C4CC4)c3)c(F)c2)C1=O)C(F)(F)F [Compound 314] | 8.09 |
